Results reported in patent US12071450B2, “Salts of conjugates for cancer therapy” (Biosight Ltd., priority 2015, dated 2024).
Where a name gives a salt, the structure may show the parent alone. Blank lines part the entries; values can stand above or below the compound they belong to.

Experiments:
[1] = system: Molt-4, Human acute lymphoblastic leukemia; assay: MTT proliferation assay, Molt-4 cells; assay type: cell-based; conditions: 3 replicates
[2] = system: K562, Human chronic myelogenous leukemia; assay: MTT proliferation assay, K562 cells; assay type: cell-based; conditions: 3 replicates
[3] = system: CCRF-CEM, Human acute lymphoblastic leukemia; assay: MTT proliferation assay, CCRF-CEM cells; assay type: cell-based; conditions: 3 replicates
[4] = system: CCRF-SB, Human acute lymphoblastic leukemia; assay: MTT proliferation assay, CCRF-SB cells; assay type: cell-based; conditions: 3 replicates
[5] = system: L1210 leukemia cancer cells; assay: MTT proliferation assay, L1210 leukemia cancer cells; assay type: cell-based; conditions: 72 hr incubation, formulated in saline, 6 replicates
Experimental: The L1210 leukemia cancer cells were grown in DMEM medium with 10% Donor Horse Serum, 1% Glutamine, 1% Non-essential Amino Acids, 0.1% Amphotericin, and 0.1% Gentamicin. Cells were diluted and seeded into 96-wells plate 2000 cells/ml, 400 cells/well, in a volume of 0.2 ml per well. The plates were incubated at 37° C. for 180 min. Following incubation, test substances were added at increasing concentrations from […] formulated in saline in 6 replicates each. The tested substances were Asp(Cytarabine).Acetate salt form, Asp(Cytarabine).hydrochloride salt form, Asp(Cytarabine).Methansulfonate salt form, Asp(Cytarabine).Benzenesulfonate salt form and Asp(Cytarabine).phosphate salt form. Test plates also included 6 replicate wells of saline as control. Plates were incubated at 37° C. for 72 hr prior to analysis. At the end of the exposure period, an MTT [3-(4,5-dimethylthiazole-2-yl)-2,5-diphenyl tetrazolium bromide] assay was performed. To each test well MTT at concentration of 5 mg/ml was added in a volume of 0.02 ml. Plates were incubated at 37° C. for 3 hr, then centrifuged at 3500 rpm for 6 minutes and the supernatants were aspirated. The pellets which contained MTT crystals were dissolved in 0.2 ml DMSO each. Absorbance was determined using ELISA reader at a wavelength of 570 nm.

[6] = system: HL-60, Human promyelocytic leukemia; assay: MTT proliferation assay, HL-60 cells; assay type: cell-based; conditions: 3 replicates
[7] = Solubility in water and organic solvents; assay type: physicochemical
[8] = Stability (decomposition) in solvents; assay type: physicochemical; conditions: rate is determined by heat and time

- IC50 [1]: 12 nM
- IC50 [2]: 355 nM
- IC50 [3]: 23 nM
- IC50 [4]: 19 µM
- IC50 [5]: 116 nM
- IC50 [6]: 262 nM
Compound: NC(CC(=O)Nc1ccn([C@@H]2O[C@H](CO)C(O)C2O)c(=O)n1)C(=O)O (some centres unmarked) [Asp(Cytarabine)•Acetate salt form, Asp(Cytarabine).Acetate]

- solubility in organic solvents ([7]; most organic solvents: acetonitrile, ethers, ketones, halogenated solvents): insoluble
- solubility in water ([7]; water): soluble
- stability in strong polar aprotic solvents ([8]; DMSO and DMF): decompose
- stability in water ([8]; water): decompose
- IC50 [5]: 240 nM
Compound: Cl.NC(CC(=O)Nc1ccn([C@@H]2O[C@H](CO)C(O)C2O)c(=O)n1)C(=O)O (some centres unmarked) [Asp(Cytarabine)•hydrochloride salt form, Asp(Cytarabine).HCl]

Compound: Asp(Cytarabine).benzenesulfonate
- IC50 [5]: 23 nM

Compound: Asp(Cytarabine).methanesulfonate
- IC50 [5]: 2 nM

- IC50 [5]: 34 nM
Compound: Asp(Cytarabine).phosphate [Asp(Cytarabine)•phosphate salt form]
